Data set [1] concerns the target T1, hSCN3A sodium channels (Homo sapiens, UniProt Q9NY46).
T1 construct: expressed in transfected cells
The data set is described as follows: hSCN3A electrophysiology, whole-cell patch-clamp or PatchXpress 7000, estimated IC-50 (Table B). It counts as cell-based. To be noted: estimated IC-50; hSCN3A cells, whole-cell patch-clamp or PatchXpress 7000; read-out: SCN3A EIC-50. In a few lines: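 A 20 msec test pulse to 0 mV followed an 8 sec conditioning prepulse at each cell's measured V1/2. Room-temperature (22-24° C) recordings on HEK cells stably expressing the channel, conventional or PatchXpress.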

Data set [2] is classed as in vivo, rat. To be noted: in contrast to compounds I, II and III. The protocol: The bioanalysis of plasma samples from rats dosed with LC/MS/MS detection of sulfathiazole as measured against an internal standard. Extraction was performed on-line with a turbulent flow chromatography system (HTLC). The transfer from the HTLC to the analytical HPLC is automatic. The mass spectrometer was operated in API ionization mode with an electrospray interface between the analytical HPLC and the mass spectrometer. Multiple reaction monitoring (mrm) detection was used for each analyte on a triple quadrupole mass spectrometer.
2. Materials • HPLC grade reagents were used such as: • Water (Hydro Services Picosystem water filtration) • Methanol (Fisher Ultima) • Ammonium formate (Sigma), and • Formic acid (Sigma) • Rat plasma • sulfathiazole • internal standard B. Instrument Conditions • Mass spectrometer: • Positive ion, mrm detection at • m/z 256 to m/z 108 for ICA-000024 • m/z 342 to m/z 218 for ICA-18756 (internal standard) • 100 ms Dwell time • Cone voltage, capillary voltage and collision energy were optimized for each compound • Source Temperature: 125 C, Desolvation temperature: 325 C • Cone gas at 73 L/hr, and Desolvation gas at 740 L/hr C. Chromatography Conditions
1. Mobile Phases: • A: 98% water:2% methanol with • 4 mM ammonium formate, 0.1% formic acid • B: 98% methanol:2% water with • 4 mM ammonium formate, 0.1% formic acid
2. HTLC Turbulent Flow Quaternary Pump • Column: Cohesive Cyclone Turbo-Flow • Timetable:
3. Analytical Binary Pump • Column: Phenomenex Synergi Hydro-RP 4u 50 mm×2.1 mm • Timetable:
4. Injection Volume • 20 μL D. Preparation of Standards and Samples
Plasma standards and samples were prepared for injection according to the standard operating procedure, HTLC Plasma Analysis by LC/MS/MS.

Data set [3] deals with Nav1.3 (Homo sapiens, UniProt Q9NY46). To be noted: read-out: TTX IC-50; cited from earlier work.
Sequence of Nav1.3 (Q9NY46 whole entry, looked up): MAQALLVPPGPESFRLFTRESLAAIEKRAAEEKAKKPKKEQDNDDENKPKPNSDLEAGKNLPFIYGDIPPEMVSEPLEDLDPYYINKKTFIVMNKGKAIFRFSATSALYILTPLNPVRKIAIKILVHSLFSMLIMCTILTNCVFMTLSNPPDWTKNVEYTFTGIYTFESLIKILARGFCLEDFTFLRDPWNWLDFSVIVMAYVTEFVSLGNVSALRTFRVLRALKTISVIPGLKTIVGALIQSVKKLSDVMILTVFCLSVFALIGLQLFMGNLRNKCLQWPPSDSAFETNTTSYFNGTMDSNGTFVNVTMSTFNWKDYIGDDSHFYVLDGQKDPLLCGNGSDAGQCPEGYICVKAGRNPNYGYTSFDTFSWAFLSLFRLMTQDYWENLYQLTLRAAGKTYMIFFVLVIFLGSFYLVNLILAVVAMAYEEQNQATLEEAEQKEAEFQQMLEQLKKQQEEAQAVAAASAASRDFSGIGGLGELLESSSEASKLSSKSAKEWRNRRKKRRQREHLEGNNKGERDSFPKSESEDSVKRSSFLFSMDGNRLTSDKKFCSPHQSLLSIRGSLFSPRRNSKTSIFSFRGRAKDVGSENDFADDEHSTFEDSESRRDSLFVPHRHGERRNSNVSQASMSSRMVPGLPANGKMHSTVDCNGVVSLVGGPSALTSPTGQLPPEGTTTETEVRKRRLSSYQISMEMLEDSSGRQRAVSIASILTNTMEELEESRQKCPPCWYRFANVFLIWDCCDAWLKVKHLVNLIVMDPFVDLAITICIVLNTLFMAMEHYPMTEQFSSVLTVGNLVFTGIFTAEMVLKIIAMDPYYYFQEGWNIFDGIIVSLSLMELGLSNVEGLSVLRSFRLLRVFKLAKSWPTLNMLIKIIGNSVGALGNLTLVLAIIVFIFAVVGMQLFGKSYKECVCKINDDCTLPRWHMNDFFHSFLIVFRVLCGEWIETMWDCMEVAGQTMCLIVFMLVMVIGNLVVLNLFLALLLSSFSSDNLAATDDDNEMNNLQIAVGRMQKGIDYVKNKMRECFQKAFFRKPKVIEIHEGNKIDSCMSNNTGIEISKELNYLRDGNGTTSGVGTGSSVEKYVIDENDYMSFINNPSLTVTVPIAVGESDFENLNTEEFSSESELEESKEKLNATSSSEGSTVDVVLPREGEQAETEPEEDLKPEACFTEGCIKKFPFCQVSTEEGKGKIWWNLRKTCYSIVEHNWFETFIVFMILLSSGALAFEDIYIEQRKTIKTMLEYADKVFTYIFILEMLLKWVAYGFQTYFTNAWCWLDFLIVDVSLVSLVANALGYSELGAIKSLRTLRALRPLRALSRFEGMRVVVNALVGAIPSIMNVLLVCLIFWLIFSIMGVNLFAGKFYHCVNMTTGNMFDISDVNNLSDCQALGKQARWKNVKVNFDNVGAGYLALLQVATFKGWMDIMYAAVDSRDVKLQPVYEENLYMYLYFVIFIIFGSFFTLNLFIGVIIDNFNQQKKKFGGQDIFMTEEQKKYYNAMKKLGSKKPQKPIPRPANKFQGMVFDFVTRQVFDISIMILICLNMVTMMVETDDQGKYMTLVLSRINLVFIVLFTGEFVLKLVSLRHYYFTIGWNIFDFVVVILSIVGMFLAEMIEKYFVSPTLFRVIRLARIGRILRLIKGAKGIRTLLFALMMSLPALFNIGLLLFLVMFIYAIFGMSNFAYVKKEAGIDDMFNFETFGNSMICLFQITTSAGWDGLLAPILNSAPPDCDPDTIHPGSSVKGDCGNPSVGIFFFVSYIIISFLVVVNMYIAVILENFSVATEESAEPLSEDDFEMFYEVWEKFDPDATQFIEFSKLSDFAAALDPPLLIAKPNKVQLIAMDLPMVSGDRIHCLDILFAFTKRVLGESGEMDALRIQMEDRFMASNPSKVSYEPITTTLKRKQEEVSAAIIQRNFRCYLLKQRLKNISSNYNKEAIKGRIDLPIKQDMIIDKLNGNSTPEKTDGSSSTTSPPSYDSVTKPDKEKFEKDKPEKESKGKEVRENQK
Data set [4] has as its target Nav1.2 (Homo sapiens, UniProt Q99250). To be noted: read-out: TTX IC-50; cited from earlier work.
In data set [5] the target is Nav1.9 (Homo sapiens, UniProt Q9UI33). To be noted: read-out: TTX IC-50; cited from earlier work.
Data set [6] concerns the target Nav1.8 (Homo sapiens, UniProt Q9Y5Y9). To be noted: read-out: TTX IC-50; cited from earlier work.
Data set [7] has as its target Nav1.6 (Homo sapiens, UniProt Q9UQD0). To be noted: read-out: TTX IC-50; cited from earlier work.
Data set [8] concerns the target Nav1.1 (Homo sapiens, UniProt P35498). To be noted: read-out: TTX IC-50; cited from earlier work.

Some results are limits rather than exact numbers.

T1 sequence (Q9NY46 whole entry): as the sequence (Q9NY46 whole entry, looked up) above
Sequence of Nav1.6 (Q9UQD0 whole entry, looked up): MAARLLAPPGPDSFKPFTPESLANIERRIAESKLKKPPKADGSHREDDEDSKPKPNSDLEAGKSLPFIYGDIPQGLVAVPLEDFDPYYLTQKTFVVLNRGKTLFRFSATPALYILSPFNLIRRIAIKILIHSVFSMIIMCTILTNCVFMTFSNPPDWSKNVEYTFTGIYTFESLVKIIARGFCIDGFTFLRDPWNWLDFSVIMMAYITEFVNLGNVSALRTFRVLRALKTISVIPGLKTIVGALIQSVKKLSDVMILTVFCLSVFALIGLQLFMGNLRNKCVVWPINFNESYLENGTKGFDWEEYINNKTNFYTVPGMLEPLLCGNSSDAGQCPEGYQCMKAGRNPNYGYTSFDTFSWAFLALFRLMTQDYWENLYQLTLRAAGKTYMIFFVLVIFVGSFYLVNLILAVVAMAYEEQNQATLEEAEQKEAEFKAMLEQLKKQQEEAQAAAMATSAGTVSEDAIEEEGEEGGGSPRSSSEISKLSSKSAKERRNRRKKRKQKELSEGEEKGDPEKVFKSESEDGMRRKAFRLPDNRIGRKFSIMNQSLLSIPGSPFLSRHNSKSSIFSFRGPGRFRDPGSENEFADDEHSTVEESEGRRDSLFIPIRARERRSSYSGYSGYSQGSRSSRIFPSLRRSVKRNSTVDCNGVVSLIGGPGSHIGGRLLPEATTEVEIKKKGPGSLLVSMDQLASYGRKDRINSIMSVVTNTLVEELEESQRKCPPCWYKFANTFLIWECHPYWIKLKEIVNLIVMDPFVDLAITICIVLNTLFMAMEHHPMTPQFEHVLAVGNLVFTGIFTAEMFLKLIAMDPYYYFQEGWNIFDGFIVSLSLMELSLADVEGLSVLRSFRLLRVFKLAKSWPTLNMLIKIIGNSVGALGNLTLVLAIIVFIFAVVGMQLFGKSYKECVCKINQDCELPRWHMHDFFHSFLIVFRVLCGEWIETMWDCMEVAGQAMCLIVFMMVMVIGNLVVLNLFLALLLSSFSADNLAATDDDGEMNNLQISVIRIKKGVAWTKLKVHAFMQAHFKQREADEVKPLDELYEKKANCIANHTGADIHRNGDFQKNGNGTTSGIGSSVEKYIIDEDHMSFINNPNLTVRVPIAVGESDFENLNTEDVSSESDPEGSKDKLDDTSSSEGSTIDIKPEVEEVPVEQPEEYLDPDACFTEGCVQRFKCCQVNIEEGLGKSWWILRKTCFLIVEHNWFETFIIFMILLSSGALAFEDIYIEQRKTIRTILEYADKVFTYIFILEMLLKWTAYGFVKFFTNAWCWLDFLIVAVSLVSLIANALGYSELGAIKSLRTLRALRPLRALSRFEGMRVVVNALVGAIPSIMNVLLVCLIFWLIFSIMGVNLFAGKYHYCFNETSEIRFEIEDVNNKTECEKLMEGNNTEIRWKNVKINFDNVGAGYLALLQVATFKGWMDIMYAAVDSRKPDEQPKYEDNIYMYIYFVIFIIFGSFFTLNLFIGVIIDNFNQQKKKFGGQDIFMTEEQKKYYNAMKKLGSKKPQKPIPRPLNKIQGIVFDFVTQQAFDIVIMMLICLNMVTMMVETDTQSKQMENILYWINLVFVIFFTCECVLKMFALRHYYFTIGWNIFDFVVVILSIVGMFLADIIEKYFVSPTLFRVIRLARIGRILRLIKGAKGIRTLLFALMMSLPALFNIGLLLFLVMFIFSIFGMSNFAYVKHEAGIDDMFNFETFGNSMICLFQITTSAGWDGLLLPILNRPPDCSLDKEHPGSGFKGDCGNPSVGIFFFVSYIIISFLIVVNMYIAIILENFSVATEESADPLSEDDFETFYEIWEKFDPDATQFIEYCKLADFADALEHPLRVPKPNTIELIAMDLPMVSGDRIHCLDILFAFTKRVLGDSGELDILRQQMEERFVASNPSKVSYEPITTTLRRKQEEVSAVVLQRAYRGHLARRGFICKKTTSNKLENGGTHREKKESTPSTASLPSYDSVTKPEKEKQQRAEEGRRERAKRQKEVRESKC

In the case of `O=C(NCCOc1ccc(Cl)cc1)c1ccc(S(=O)(=O)Nc2nccs2)cc1` [Example 186, N-[2-(4-chlorophenoxy)ethyl]-4-[(1,3-thiazol-2-ylamino)sulfonyl]benzamide], the IC50 in data set [1] was 420 nM. The “metabolism to the aniline containing sulfathiazole” value in data set [2] is on record as “do not metabolize to form the aniline containing sulfathiazole”.
For `CC(C)(C)CCNC(=O)c1ccc(S(=O)(=O)Nc2nccs2)cc1` [Example 418, N-(3,3-dimethylbutyl)-4-[(1,3-thiazol-2-ylamino)sulfonyl]benzamide] the same measures were 2740 nM and “do not metabolize to form the aniline containing sulfathiazole”.
With `NC1=N[C@H](O)[C@H]2[C@H]3O[C@]4(O)O[C@@H]([C@@H](O)[C@@]2(N1)[C@@H]4O)[C@]3(O)CO` [TTX, tetrodotoxin], the IC50 in data set [3] was 15 nM; in data set [4], 10 nM; in data set [5] it was 1000 nM; in data set [6] it was 50000 nM; in data set [7] it was 6 nM; in data set [8] it was 10 nM.
Turning to `O=C(NCc1ccc(Cl)cc1)c1ccc(S(=O)(=O)Nc2nccs2)cc1` [Example 100, N-(4-chlorobenzyl)-4-[(1,3-thiazol-2-ylamino)sulfonyl]benzamide], in data set [1], the IC50 is 430 nM. The “metabolism to the aniline containing sulfathiazole” value in data set [2] is on record as “do not metabolize to form the aniline containing sulfathiazole”.
With `COc1cccc(C2CCCN(C(=O)c3ccc(S(=O)(=O)Nc4nccs4)cc3)C2)c1` (centres unmarked) [Example 217, 4-{[3-(3-Methoxyphenyl)piperidin-1-yl]carbonyl}-N-1,3-thiazol-2-yl-benzenesulfonamide], the IC50 in data set [1] was 2910 nM.
Regarding `O=C(NCc1cccc(C(F)(F)F)c1)c1ccc(S(=O)(=O)Nc2ncc(Cl)s2)c(Cl)c1` [Example 372, 3-Chloro-4-{[(5-chloro-1,3-thiazol-2-yl)amino]sulfonyl}-N-[3-(trifluoromethyl)benzyl] benzamide], the IC50 in data set [1] was 2260 nM.
On the same count and under the same terms, the value for `O=C(NCc1ccc(Cl)cc1C(F)(F)F)c1ccc(S(=O)(=O)Nc2nccs2)cc1` [Example 406, N-[4-chloro-2-(trifluoromethyl)benzyl]-4-[(1,3-thiazol-2-ylamino)sulfonyl] benzamide] was 260 nM; that for `O=C(NCc1cccc(C(F)(F)F)c1)c1ccc(S(=O)(=O)Nc2nccs2)cc1F` [Example 327, 2-Fluoro-4-[(1,3-thiazol-2-ylamino)sulfonyl]-N-[3-(trifluoromethyl)benzyl]benzamide] was 260 nM; that for `O=C(NCC1(c2ccc(Cl)cc2)CC1)c1ccc(S(=O)(=O)Nc2ncns2)c(F)c1` [Example 382, N-{[1-(4-chlorophenyl)cyclopropyl]methyl}-3-fluoro-4-[(1,2,4-thiadiazol-5-ylamino)sulfonyl]benzamide] was 140 nM.
Still for that read-out and setting: the value for `O=C(NCCNc1ccc(Cl)cc1)c1ccc(S(=O)(=O)Nc2nccs2)cc1` [Example 385, N-{2-[(4-chlorophenyl)amino]ethyl}-4-[(1,3-thiazol-2-ylamino)sulfonyl]benzamide] was 780 nM; that for `CC(C)(NC(=O)c1ccc(S(=O)(=O)Nc2nccs2)cc1)c1ccc(Cl)cc1` [Example 124, N-[1-(4-chlorophenyl)-1-methylethyl]-4-[(1,3-thiazol-2-ylamino)sulfonyl]benzamide] was 1810 nM; that for `O=C(NCc1ccccc1C(F)(F)F)c1ccc(S(=O)(=O)Nc2nccs2)cc1` [Example 88, 4-[(1,3-Thiazol-2-ylamino)sulfonyl]-N-[2-(trifluoromethyl)benzyl]benzamide] was over 100 nM.
